The source of these data is patent US20040191312A1, “5-HT3 receptor agonists as neuroprotectors” (priority 2002, published 2004).

The subject of assay [1] is primary neuron cultures (OGD-induced cell death). Nature of the assay: LOPAC library screen using the oxygen-glucose deprivation (OGD) assay, ATP content as index of cell viability. The settings on record: for activity at 10 µM: Rattus norvegicus, Primary neuron, read-out: Activity (% Cells Alive).
Procedure: Primary neuron cultures were prepared as follows: Brain cortices from E18 rat brains were dissected in DPBS without calcium and magnesium. They were digested at 37° C. for 30 min with trypsin. The digestion was stopped by addition of MEM, 10% Fetal Bovine Serum (FBS)and 10% Horse Serum. DNase (10 U/ml) was also added. The tissues were mechanically triturated using a pipette. This step was repeated until all cells were dissociated and then they were filtered through a 70 um Nitrex mesh. The cells were counted and plated in poly ornithine-coated 96-well culture plates at 5×10^5 cells/well in MEM containing 10% HS and 10% FBS. Three days later, the medium was changed to neurobasal-serum free containing B27 and SATO (Sodium selenite 4 μg/ml, transferrrin 100 μg/ml, BSA 100 μg/ml, progesterone 62 μg/ml, putrescine 160 μg/ml). 5-Fluoro-2′deoxyuridine (FdU 30 μM) was added to inhibit the dividing microglia from the cultures. The culture medium was changed every 3 days leaving half volume of the old (conditioned) media and adding half volume of fresh media. All experiments were performed in 11-12 days-old neuronal cultures. The cells were maintained at 37° C. in a 5% CO2 humidified incubator.
The compounds from the LOPAC library, obtained from Sigma, were plated in 96-wells at 200 μM (20× the final concentration).
The neuronal cultures were pre-incubated with the compounds (10 μM final concentration) for 2 hours. The cells were then subjected to oxygen glucose deprivation (OGD) for 120 min at 37° C. in presence of the compounds of the library. Cultures were placed in an anaerobic chamber (Forma Scientific) and washed two times with balanced salt solution (116 mM NaCl, 5.4 mM KCl, 1 mM NaH2PO4, 1.8 mm CaCl2, 26.2 mM NaHCO3, 0.01 mM glycine, pH=7.4) lacking glucose and aerated with an anaerobic gas mix (85% N2/5% CO2/10% H2) to remove residual oxygen. Control cultures were kept in the original neurobasal media but were submitted to the anaerobic conditions. MK-801 (10 μM), a non competitive NMDA receptor antagonist was used to prevent cell death after OGD caused by activation of the NMDA receptors. To terminate the oxygen glucose deprivation, the cells were removed from the anaerobic chamber and the OGD media was removed and replaced with neurobasal media. The compounds were added back for an additional 20 hours.
Cells were lysed and ATP content was measured as an index for cell viability using a commercially available reagent (Cell Titter Glo from Promega). This assay generates a luminescent signal produced by the luciferase reaction.
Assay [2] addresses T1, 5-HT3 receptor (Homo sapiens, UniProt P46098).
T1 sequence (P46098 24-478): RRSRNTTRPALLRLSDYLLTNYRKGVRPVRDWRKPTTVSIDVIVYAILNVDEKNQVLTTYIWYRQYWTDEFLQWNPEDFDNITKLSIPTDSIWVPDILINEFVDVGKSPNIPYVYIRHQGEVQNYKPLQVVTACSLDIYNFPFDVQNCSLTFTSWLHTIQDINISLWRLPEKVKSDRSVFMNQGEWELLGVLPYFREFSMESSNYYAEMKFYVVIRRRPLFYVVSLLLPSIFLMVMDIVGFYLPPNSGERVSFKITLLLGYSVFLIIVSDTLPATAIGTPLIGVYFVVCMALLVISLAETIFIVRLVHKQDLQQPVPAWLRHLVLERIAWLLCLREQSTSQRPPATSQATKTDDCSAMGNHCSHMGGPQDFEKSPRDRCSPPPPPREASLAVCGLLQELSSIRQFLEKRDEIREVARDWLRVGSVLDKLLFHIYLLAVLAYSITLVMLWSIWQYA
The settings on record: known 5-HT3 agonists; van Hooft et al. 1997, Morain et al. 1994; cited from earlier work.

As a reminder, the EC50 is the concentration at which the effect is half-maximal.

With `N=C(N)NC(=N)Nc1cccc(Cl)c1` [Formula I, 1-(m-chlorophenyl)-biguanide], in assay [1], the activity at 10 µM came to 106 ± 6%. For the same molecule, the EC50 in assay [2] is 0.4 µM.

Consider `CN1CCN(c2ccc3ccccc3n2)CC1` [Formula IV, 2-(1-(4-methyl)-piperazineyl)quinolinedimaleate], for which the activity at 10 µM in assay [1] is 103 ± 30%. In the case of `Cc1[nH]c2ccc(O)cc2c1CCN.O=C(O)/C=C\C(=O)O` [Formula III, 2-methyl-5-hydroxytryptaminemaleate], the “Activity (% Cells Alive)” value in assay [1] (10 μM compound, 2 h pre-incubation, OGD 120 min, compound added back 20 h, ATP content (Cell Titter Glo)) came to 106 ± 25%. In the case of `Cc1[nH]c2ccc(O)cc2c1CCN` [2-methyl-5-HT, reference compound], the EC50 in assay [2] was 5 to 8 µM.

For `N=C(N)NC(=N)Nc1ccccc1` [Formula II, N-phenyl-imidocarbonimidicdiamide], the activity at 10 µM in assay [1] was determined as 67 ± 25%. Further, the EC50 in assay [2] is 22 µM. Regarding `NC1CCN(c2cccc(Cl)n2)CC1` [Formula V, 1-(6-chloro-2-pyridinyl)-4-piperidinamine], the activity at 10 µM in assay [1] was 80 ± 27%.
